From patent publication US12636270B2, “Levothyroxine liquid formulations” (Fresenius Kabi USA, LLC, priority 2016, dated 2026)
Like-named read-outs stand apart in the source and are kept apart here.

Legend:
[1] = 55° C., 1 W, 20 mcg/mL, glycerol 100 mg/mL, normal saline
Experimental: (§1) The HPLC conditions were as follows: • Column: Waters […]™ C8 (5 μm, 4.6×150 mm) HPLC column • Mobile Phase A: Sodium heptanesulfonate/Acetonitrile/Water/Methanol/H3PO4 (4.023 g/800 mL/1600 mL/1600 mL/4 mL) • Mobile Phase B: Sodium heptanesulfonate/Acetonitrile/Water/Methanol/H3PO4 (2.013 g/1000 mL/100 mL/900 mL/2 mL) • Diluent: 0.01 N NaOH • Column temperature: 25° C. • Flow rate: 1.5 mL/min • Injection volume: 40-200 μL • Autosampler temperature: 5° C. • Detection: UV at 225 nm • Separation mode: Gradient Gradient Program:
Separate samples containing levothyroxine sodium at a concentration of 20 mcg/mL and glycerol at a concentration of 100 mg/mL in normal saline were adjusted to pH levels of 7, 8, and 9. 5 mL of each sample was filled into 10 cc amber tubing vials, and the vials were stoppered with 20 mm stoppers under nitrogen. The samples were stored at a temperature of 55° C. The samples were analyzed by HPLC at 1 week of storage using the HPLC conditions described in Example 1. The results for liothyronine, largest unknown impurity, and total impurities as determined by peak area percent are set forth in Table 7.

[2] = 4 W, 20 mcg/mL, tromethamine 10 mg/mL, 5.4 mg/mL sodium chloride in water
Experimental: Separate samples containing 20 mcg/mL levothyroxine sodium, 10 mg/mL tromethamine, 5.4 mg/mL sodium chloride, and sodium iodide at a concentration of 280 mcg/mL, 140 mcg/mL, or 6 mcg/mL in water were adjusted to various pH levels. 5 mL of each sample was filled into 10 cc flint molded vials, and the vials were stoppered with 20 mm stoppers under nitrogen.
The HPLC conditions were as follows: • Column: ACE Excel 3 C18-PFP, 4.6×150 mm HPLC column • Mobile Phase A: Sodium heptanesulfonate/Acetonitrile/Water/Methanol/H3PO4 (4.0 g/800 mL/1600 mL/1600 mL/4.0 mL) • Mobile Phase B: Sodium heptanesulfonate/Acetonitrile/Water/Methanol/H3PO4 (4.0 g/2000 mL/200 mL/1800 mL/4.0 mL) • Diluent: 0.01 N NaOH • Column temperature: 25° C. • Flow rate: 1.5 mL/min • Injection volume: 80 μL • Autosampler temperature: 5° C. • Detection: UV at 225 nm • Separation mode: Gradient Gradient Program: […]

[3] = 20 mcg/mL, tromethamine 10 mg/mL, normal saline
Experimental: Separate samples containing levothyroxine sodium at a concentration of 20 mcg/mL, tromethamine at a concentration of 10 mg/mL in normal saline (0.9% NaCl in water) were adjusted to various pH levels. One sample additionally contained hydroxypropyl (HP) β-cyclodextrin at a concentration of 10 mg/mL. 5 mL of each sample was filled into 10 cc amber tubing vials, and the vials were stoppered with 20 mm stoppers under nitrogen. The samples were stored at temperatures of 25° C., 40° C. and 55° C. The samples stored at 55° C. were analyzed by HPLC at 1 and 4 weeks (W) of storage. The samples stored at 40° C. were analyzed by HPLC at 4 W and 3 months (M) of storage. The samples stored at 25° C. were analyzed by HPLC at 3M of storage.
as §1, with “Program: […]” for “Program:”
The results for liothyronine, largest unknown impurity, and total impurities as determined by peak area percent are set forth in Table 1.

[4] = 25° C., NaI 140 mcg/mL, pH 10.5
[5] = 25° C., NaI 280 mcg/mL, pH 10.5
[6] = 55° C., NaI 140 mcg/mL, pH 10.5
[7] = 55° C., NaI 280 mcg/mL, pH 10.5
[8] = 55° C., 1 W, pH 9, HP-β-cyclodextrin 10 mg/mL

## N[C@@H](Cc1cc(I)c(Oc2cc(I)c(O)c(I)c2)c(I)c1)C(=O)[O-].[Na+] [Levothyroxine Na, 4-(4-hydroxy-3,5-diiodophenoxy)-3,5-diiodo-L-phenylalanine sodium]
[1]; pH 7
  % Liothyronine: 3.6%
  % largest unknown impurity: 1.16%
  % total impurities: 5.3%
[1]; pH 8
  % Liothyronine: 3.4%
  % largest unknown impurity: 1.30%
  % total impurities: 5.4%
[1]; pH 9
  % Liothyronine: 2.4%
  % largest unknown impurity: 0.82%
  % total impurities: 3.8%
[2]; 25° C., NaI 6 mcg/mL, pH 10.5
  % AOII: 0.33%
  % total impurities: 1.9%
[2]; 25° C., NaI 140 mcg/mL, pH 9.5
  % AOII: 0.52%
  % total impurities: 1.51%
[2]; 25° C., NaI 140 mcg/mL, pH 10
  % AOII: 0.55%
  % total impurities: 1.64%
[2]; [4]
  % AOII: 0.6%
  % total impurities: 1.75%
[2]; 25° C., NaI 280 mcg/mL, pH 9.5
  % AOII: 0.56%
  % total impurities: 1.58%
[2]; 25° C., NaI 280 mcg/mL, pH 10
  % AOII: 0.55%
  % total impurities: 1.61%
[2]; [5]
  % AOII: 0.57%
  % total impurities: 1.66%
[2]; 55° C., NaI 6 mcg/mL, pH 10.5
  % AOII: 0.99%
  % total impurities: 3.5%
[2]; 55° C., NaI 140 mcg/mL, pH 9.5
  % AOII: 0.59%
  % total impurities: 3.6%
[2]; 55° C., NaI 140 mcg/mL, pH 10
  % AOII: 0.61%
  % total impurities: 2.86%
[2]; [6]
  % AOII: 0.53%
  % total impurities: 2.49%
[2]; 55° C., NaI 280 mcg/mL, pH 9.5
  % AOII: 0.53%
  % total impurities: 3.24%
[2]; 55° C., NaI 280 mcg/mL, pH 10
  % AOII: 0.54%
  % total impurities: 2.76%
[2]; [7]
  % AOII: 0.53%
  % total impurities: 2.43%
[3]; 25° C., 3 M, pH 9.5
  % Liothyronine: 0.6%
  % largest unknown impurity: 0.46%
  % total impurities: 1.51%
[3]; 25° C., 3 M, pH 10
  % Liothyronine: 0.35%
  % largest unknown impurity: 0.11%
  % total impurities: 0.71%
[3]; 40° C., 3 M, pH 9.5
  % largest unknown impurity: 0.48%
  % total impurities: 2.66%
[3]; 40° C., 3 M, pH 10
  % largest unknown impurity: 0.16%
  % total impurities: 1.35%
[3]; 40° C., 4 W, pH 9.5
  % Liothyronine: 0.9%
  % largest unknown impurity: 0.12%
  % total impurities: 1.7%
[3]; 40° C., 4 W, pH 10
  % Liothyronine: 0.4%
  % largest unknown impurity: 0.12%
  % total impurities: 0.6%
[3]; 55° C., 1 W, pH 8
  % Liothyronine: 15.2%
  % largest unknown impurity: 1.59%
  % total impurities: 17.5%
[3]; [8]
  % Liothyronine: 2.7%
  % largest unknown impurity: 0.86%
  % total impurities: 4.0%
[3]; 55° C., 1 W, pH 9
  % Liothyronine: 2.7%
  % largest unknown impurity: 0.67%
  % total impurities: 3.6%
[3]; 55° C., 1 W, pH 9.5
  % Liothyronine: 1.2%
  % largest unknown impurity: 0.50%
  % total impurities: 2.2%
[3]; 55° C., 1 W, pH 10
  % Liothyronine: 0.6%
  % largest unknown impurity: 0.27%
  % total impurities: 1.5%
[3]; 55° C., 4 W, pH 9.5
  % largest unknown impurity: 0.09%
  % total impurities: 2.1%
[3]; 55° C., 4 W, pH 10
  % Liothyronine: 3.1%
  % largest unknown impurity: 0.55%
  % total impurities: 4.2%
